For the assay, the system named is ammonia lateralization threshold. Nature of the assay: Panel evaluation of the lateralization threshold (LT) of ammonia alone and in combination with a PRM. The assay is classed as in vivo, panellists. The arrangement: LT of ammonia Panellist 1 Cond II / LT of ammonia Panellist 2 Cond II / LT of ammonia Panellist 3 Cond II: unit not given here. The settings on record: Table 4. In a few lines: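 Qualified panellists' ammonia lateralization threshold measured by two-alternative forced-choice staircase (four-in, two-down, one-up, five reversals; mean of last four reversals), ammonia delivered via NH4Cl/NaOH/H2O headspace. Repeated-measures design interleaving ammonia alone and with intensity-matched PRM in propylene glycol, using yoked two-bottle nosepieces; 2–3 panellists per PRM.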

Where [1] appears, read: ammonia stimulus combined with PRM stimulus.
Setting [2] is: change of ammonia LT, Cond II (with PRM) vs Cond I (ammonia alone).

1 substance from US20130287721A1, “METHOD FOR COUNTERACTING AMMONIA MALODOR” (Firmenich SA, priority 2010, published 2013) can be followed below.

For the substance “Mixture of (E)-4-(2,2,C-3,T-6-tetramethyl-R-1-cyclohexyl)-3-buten-2-one and (E)-4-(2,2,T-3,T-6-tetramethyl-R-1-cyclohexyl)-3-buten-2-one [Myrrhone ®]”, under setting [1], the “LT of ammonia Panellist 1 Cond II” value is recorded as 11.1, the “LT of ammonia Panellist 2 Cond II” value stood at 3.5 and the “LT of ammonia Panellist 3 Cond II” value came to 3.5. Under setting [2], the “LT of ammonia Panellist 1 %Δ” value came out at 77%, the “LT of ammonia Panellist 2 %Δ” value is listed as 212% and the “LT of ammonia Panellist 3 %Δ” value turned out to be 77%.
